The record followed here is paper PMC6736568, “Discovery of Novel Anti-cryptosporidial Activities From Natural Products by in vitro High-Throughput Phenotypic Screening” (Frontiers in Microbiology, 2019).

One series deals with Cryptosporidium parvum. Kind of series: qRT-PCR assay of the growth of C. parvum in vitro in HCT-8 host cells (primary and secondary screening, EC50). To be noted: for Inhibition (%): primary screening at 10 uM; for % Inhibition (3.3 uM): secondary screening at 3.3 uM. In kind it is cell-based. In general terms: Real-time PCR tracks product formation cycle by cycle.
The mark [1] stands for this setting: primary screening at 10 uM, from Hs18S ΔCT.
Setting [2] is: primary screening at 10 uM, treated vs control.

Read-outs that look alike come from different tables or passages of the source.

STROPH[…] LACTONE ACETATE: the “Cytotoxicity (%)” value in the series with HCT-8 host cells (Hs18S) (setting [1]) is given as 80.7%. The “Hs18S ΔCT” value in the series with HCT-8 host cells (Hs18S) (setting [2]) turned out to be 2.37. For the same molecule, in the series with Cryptosporidium parvum, the “Inhibition (%)” value was 96.28% and the “% Inhibition (3.3 uM)” value came out at 19%.

Regarding `COC(=O)/C=C/c1cc(OC)c(OC)c(OC)c1` [METHYL TRIMETHOXYCINNAMATE], in the series with HCT-8 host cells (Hs18S) (setting [1]), the “Cytotoxicity (%)” value stood at 2.8%. Also, the “Hs18S ΔCT” value with HCT-8 host cells (Hs18S) (setting [2]) came to 0.04. Moreover, the “Inhibition (%)” value in the series with Cryptosporidium parvum is on record as -24.35%.

For the molecule `C=CCCCCCCCCCCCC(O)CC(O)COC(C)=O` (stereo not shown) [AVOCADENE ACETATE], the “Cytotoxicity (%)” value in the series with HCT-8 host cells (Hs18S) (setting [1]) is -38.4%. Moreover, the “Hs18S ΔCT” value in the series with HCT-8 host cells (Hs18S) (setting [2]) is -0.47. Besides, the “Inhibition (%)” value with Cryptosporidium parvum is -0.39%.

As for `O=C(O)c1cc(O)c(=O)c2c(O)c(O)cc([C@H]3Oc4cc(O)cc(O)c4C[C@H]3O)c2c1` [EPITHEAFLAVIC ACID], the “Cytotoxicity (%)” value in the series on HCT-8 host cells (Hs18S) (10 µM) worked out at 6.9%. In addition, in the series with Cryptosporidium parvum, the “Inhibition (%)” value was -9.36%.

Consider `CN1CCC[C@H]1c1cccnc1.O=C(O)C(O)C(O)C(=O)O.O=C(O)C(O)C(O)C(=O)O` [NICOTINE BITARTRATE], for which the “Cytotoxicity (%)” value with HCT-8 host cells (Hs18S) (setting [1]) is listed as -43.3%. In the series on HCT-8 host cells (Hs18S) (setting [2]), the “Hs18S ΔCT” value is recorded as -0.52. The “Inhibition (%)” value in the series with Cryptosporidium parvum was 36.71%.

`NC[C@H]1O[C@H](O[C@H]2[C@H](O[C@@H]3O[C@H](CO)[C@@H](O)[C@H]3O)[C@@H](O)[C@H](N)C[C@@H]2N)[C@H](N)[C@@H](O)[C@@H]1O.O=S(=O)(O)O` [RIBOSTAMYCIN SULFATE]: the “Cytotoxicity (%)” value with HCT-8 host cells (Hs18S) (setting [1]) is -2.0%. Besides, in the series with HCT-8 host cells (Hs18S) (setting [2]), the “Hs18S ΔCT” value is -0.03. The “Inhibition (%)” value in the series on Cryptosporidium parvum is -35.94%.

BACITRACIN: the “Cytotoxicity (%)” value in the series on HCT-8 host cells (Hs18S) (setting [1]) is given as 1.4%. For the same molecule, in the series on HCT-8 host cells (Hs18S) (setting [2]), the “Hs18S ΔCT” value is reported as 0.02. Besides, in the series on Cryptosporidium parvum, the “Inhibition (%)” value is listed as -21.81%.

As to `COc1ccc(-c2cc(=O)c3c(O)cc(OC)c(OC)c3o2)c(OC)c1` [5-HYDROXY-2',4',7,8-TETRAMETHOXYFLAVONE], the “Cytotoxicity (%)” value with HCT-8 host cells (Hs18S) (setting [1]) was determined as 13.2%. The “Hs18S ΔCT” value with HCT-8 host cells (Hs18S) (setting [2]) came out at 0.20. In addition, in the series on Cryptosporidium parvum, the “Inhibition (%)” value is 89.23% and the “% Inhibition (3.3 uM)” value was -83%.

Turning to `NC(=O)CC[C@H](N)C(=O)O` [GLUTAMINE (D)], the “Cytotoxicity (%)” value with HCT-8 host cells (Hs18S) (setting [1]) is -11.8%. For the same molecule, the “Hs18S ΔCT” value in the series with HCT-8 host cells (Hs18S) (setting [2]) is -0.16. Moreover, the “Inhibition (%)” value in the series with Cryptosporidium parvum is 2.46%.

As for `O=c1cc(-c2ccccc2)oc2cccc(O)c12` [PRIMULETIN], the “Cytotoxicity (%)” value in the series with HCT-8 host cells (Hs18S) (setting [1]) was found to be 3.1%. In addition, the “Hs18S ΔCT” value with HCT-8 host cells (Hs18S) (setting [2]) was 0.05. For the same molecule, the “Inhibition (%)” value in the series with Cryptosporidium parvum is recorded as -14.55%.

For BLEOMYCIN (bleomycin B2 shown), the “Cytotoxicity (%)” value in the series on HCT-8 host cells (Hs18S) (setting [1]) is recorded as -16.8%. Further, the “Hs18S ΔCT” value with HCT-8 host cells (Hs18S) (setting [2]) is on record as -0.22. Further, in the series on Cryptosporidium parvum, the “Inhibition (%)” value was determined as 52.96%.

With `CC(C)c1c(O)c(-c2cc3c(c(C(C)C)c2O)CCC2C(C)(C)CCC[C@]32C)cc2c1CCC1C(C)(C)CCC[C@]21C` (stereo partly shown) [PODOTOTARIN], in the series on HCT-8 host cells (Hs18S) (setting [1]), the “Cytotoxicity (%)” value was 2.5%. Further, the “Hs18S ΔCT” value with HCT-8 host cells (Hs18S) (setting [2]) is given as 0.04. Moreover, the “Inhibition (%)” value in the series with Cryptosporidium parvum was -4.91%.

For the molecule `Cc1cc2nc3c(=O)[nH]c(=O)nc-3n(C[C@H](O)[C@H](O)[C@H](O)COP(=O)([O-])O)c2cc1C.[Na+]` [RIBOFLAVIN 5-PHOSPHATE SODIUM], the “Cytotoxicity (%)” value in the series with HCT-8 host cells (Hs18S) (setting [1]) was -25.0%. Besides, the “Hs18S ΔCT” value with HCT-8 host cells (Hs18S) (setting [2]) was -0.32. The “Inhibition (%)” value in the series on Cryptosporidium parvum is given as -3.47%.

Take BERBAMINE HYDROCHLORIDE: the “Cytotoxicity (%)” value in the series on HCT-8 host cells (Hs18S) (setting [1]) is listed as -15.6%. Further, the “Hs18S ΔCT” value in the series with HCT-8 host cells (Hs18S) (setting [2]) is -0.21. The “Inhibition (%)” value in the series on Cryptosporidium parvum came out at 6.86%.

`C[C@@H](N)[C@@H](O)c1ccccc1` [1R,2S-PHENYLPROPYLAMINE]: in the series on HCT-8 host cells (Hs18S), the “Hs18S ΔCT” value is listed as -0.16. Besides, in the series on HCT-8 host cells (Hs18S) (10 µM), the “Cytotoxicity (%)” value was -12.0. The “Inhibition (%)” value in the series with Cryptosporidium parvum is reported as -7.00%.

As for `COC(=O)/C(C)=C\CC12OC(C)(C)C3CC(C=C4C(=O)c5c(c(CCC(C)(C)Cl)c6c(c5OC)C5CC(C)(CCC5=C(C)C)O6)OC431)C2=O` (stereo not shown) [DIMETHYL GAMBOGINATE], the “Cytotoxicity (%)” value with HCT-8 host cells (Hs18S) (setting [1]) was determined as 79.7%. Further, the “Hs18S ΔCT” value with HCT-8 host cells (Hs18S) (setting [2]) amounted to 2.30. Also, in the series on Cryptosporidium parvum, the “Inhibition (%)” value is recorded as 93.45% and the “% Inhibition (3.3 uM)” value was 47%.

Consider `COc1ccc(-c2oc3ccccc3c(=O)c2OC)cc1` [3,4'-DIMETHOXYFLAVONE], for which the “Cytotoxicity (%)” value in the series with HCT-8 host cells (Hs18S) (setting [1]) was determined as 22.3%. The “Hs18S ΔCT” value in the series with HCT-8 host cells (Hs18S) (setting [2]) was found to be 0.36. Also, the “Inhibition (%)” value in the series with Cryptosporidium parvum was -22.87%.

With `OC[C@H]1O[C@H](O[C@H]2[C@H](O)[C@@H](O)[C@H](O)O[C@@H]2CO)[C@H](O)[C@@H](O)[C@@H]1O` [D-(+)-MALTOSE], the “Hs18S ΔCT” value with HCT-8 host cells (Hs18S) (setting [2]) is recorded as -0.19. Moreover, the “Inhibition (%)” value in the series with Cryptosporidium parvum stood at 55.12%.

With `O=c1cc(-c2ccc(O)cc2)oc2ccc(O)cc12` [6,4'-DIHYDROXYFLAVONE], the “Cytotoxicity (%)” value in the series with HCT-8 host cells (Hs18S) (setting [1]) is given as 17.9%. The “Hs18S ΔCT” value in the series on HCT-8 host cells (Hs18S) (setting [2]) turned out to be 0.28. Moreover, the “Inhibition (%)” value in the series on Cryptosporidium parvum stood at 28.18%.

As for `C[C@H](CCC(=O)O)[C@H]1CC[C@H]2[C@@H]3C[C@H](O)[C@@H]4C[C@H](O)CC[C@]4(C)[C@H]3CC[C@]12C` [alpha-HYDROXYDEOXYCHOLIC ACID], in the series on HCT-8 host cells (Hs18S) (setting [1]), the “Cytotoxicity (%)” value was -43.0%. In addition, in the series on HCT-8 host cells (Hs18S) (setting [2]), the “Hs18S ΔCT” value is given as -0.52. Also, the “Inhibition (%)” value in the series with Cryptosporidium parvum was -6.93%.

As to `COc1cc2c(cc1-c1cc3cc4ccoc4cc3oc1=O)OCO2` [PACHYRRHIZIN], the “Cytotoxicity (%)” value in the series on HCT-8 host cells (Hs18S) (setting [1]) is -6.0%. In addition, the “Hs18S ΔCT” value with HCT-8 host cells (Hs18S) (setting [2]) is -0.08. Besides, in the series with Cryptosporidium parvum, the “Inhibition (%)” value is given as 29.77%.

With `C=C1CCC(C2CC(=O)OC2=O)C(=O)CCC2C1CC2(C)C` (stereo not shown), in the series with HCT-8 host cells (Hs18S) (setting [1]), the “Cytotoxicity (%)” value is given as -6.8%. Moreover, the “Hs18S ΔCT” value in the series on HCT-8 host cells (Hs18S) (setting [2]) was -0.09. The “Inhibition (%)” value in the series with Cryptosporidium parvum turned out to be 23.70%.

Regarding `C[C@H]1O[C@H](OC2[C@@H](O)[C@@H](O)C(O)[C@H](O)[C@H]2O)[C@@H](N)C[C@@H]1N=C(N)C(=O)O.Cl` (stereo partly shown) [KASUGAMYCIN HYDROCHLORIDE], in the series with HCT-8 host cells (Hs18S) (setting [1]), the “Cytotoxicity (%)” value is on record as -1.2%. Moreover, the “Hs18S ΔCT” value in the series on HCT-8 host cells (Hs18S) (setting [2]) was -0.02. Moreover, the “Inhibition (%)” value in the series on Cryptosporidium parvum is 47.53%.

Regarding `COc1cc2oc3cc(OC)c(OC)c(CC=C(C)C)c3c(=O)c2c(O)c1CC=C(C)C` [1-HYDROXY-3,6,7-TRIMETHOXY-2,8-DIPRENYLXANTHONE], the “Cytotoxicity (%)” value with HCT-8 host cells (Hs18S) (setting [1]) amounted to 7.7%. Besides, the “Hs18S ΔCT” value in the series with HCT-8 host cells (Hs18S) (setting [2]) is 0.12. The “Inhibition (%)” value in the series on Cryptosporidium parvum is given as -18.05%.

As for `CC(=O)O[C@@H]1C[C@H]2C(C)(C)C(=O)C=C[C@]2(C)[C@H]2CC[C@]3(C)C(=CC(=O)O[C@H]3c3ccoc3)[C@@]21C` [DEOXYGEDUNIN], the “Cytotoxicity (%)” value in the series on HCT-8 host cells (Hs18S) (setting [1]) came out at 15.4%. The “Hs18S ΔCT” value in the series on HCT-8 host cells (Hs18S) (setting [2]) is on record as 0.24. For the same molecule, in the series on Cryptosporidium parvum, the “Inhibition (%)” value was determined as 28.62%.

In the case of `O=C[C@H](O)[C@H](O)CO` [ERYTHROSE], in the series on HCT-8 host cells (Hs18S) (setting [1]), the “Cytotoxicity (%)” value was 14.6%. Further, the “Hs18S ΔCT” value in the series on HCT-8 host cells (Hs18S) (setting [2]) was determined as 0.23. For the same molecule, the “Inhibition (%)” value in the series on Cryptosporidium parvum was 57.20%.

As for `CC(=O)O[C@H]1C[C@@H](OC(C)=O)C(C)(C)[C@@H]2C[C@@H](OC(C)=O)[C@@]3(C)C4=CC(=O)O[C@@H](c5ccoc5)[C@]4(C)CC[C@@H]3[C@@]12C` [DEOXYKHIVORIN], the “Cytotoxicity (%)” value in the series with HCT-8 host cells (Hs18S) (setting [1]) came to 7.7%. In addition, the “Hs18S ΔCT” value with HCT-8 host cells (Hs18S) (setting [2]) is reported as 0.11. Besides, in the series on Cryptosporidium parvum, the “Inhibition (%)” value was determined as 27.34%.

Take `COC(=O)/C(C)=C\C[C@@]12OC(C)(C)[C@@H]3C[C@@H](C=C4C(=O)c5c(OC)c6c(c(CC=C(C)C)c5O[C@]431)O[C@](C)(CCC=C(C)C)C=C6)C2=O` [METHYL GAMBOGATE METHYL ETHER]: in the series with HCT-8 host cells (Hs18S) (setting [1]), the “Cytotoxicity (%)” value turned out to be 22.4%. The “Hs18S ΔCT” value in the series on HCT-8 host cells (Hs18S) (setting [2]) was 0.37. Further, the “Inhibition (%)” value with Cryptosporidium parvum was determined as 23.61%.
